Reference: patent US20240132431A1, “METHOD FOR ALKYLATING ACIDIC FUNCTIONAL GROUP” (Chugai Seiyaku Kabushiki Kaisha, priority 2021, published 2024)

Target: T1, Bcl-2 protein (Recombinant Human Bcl-2 Protein) (Homo sapiens, UniProt P10415)
T1 construct: purchased Novus NBP2-34889
Experiment: Binding evaluation of mixture library compounds to Bcl-2 using AS-MS (affinity selection mass spectrometry)
Conditions: AS-MS, mixture of 1200 compounds, Bcl-2, ASMS Ratio(%)=(A−C)/B×100; for ASMS ratio (%) n = 1: replicate n = 1; for ASMS ratio (%) n = 2: replicate n = 2
Procedure, shortened: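 Bcl-2 binding is scored from LC/MS signal retained with protein through gel-filtration spin columns, normalised to unfiltered and protein-free controls. Incubation: 20 μM protein, […] per compound, 1 h, 23° C.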

T1 sequence (P10415 whole entry): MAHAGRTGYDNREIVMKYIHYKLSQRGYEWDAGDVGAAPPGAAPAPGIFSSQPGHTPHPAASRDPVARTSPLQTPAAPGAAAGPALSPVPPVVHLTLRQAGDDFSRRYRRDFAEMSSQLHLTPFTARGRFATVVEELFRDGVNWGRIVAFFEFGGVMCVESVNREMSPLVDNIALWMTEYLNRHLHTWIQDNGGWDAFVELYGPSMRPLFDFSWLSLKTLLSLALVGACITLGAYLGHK

| SMILES | ASMS ratio (%) n = 1 | ASMS ratio (%) n = 2 |
| --- | --- | --- |
| CCOc1cccc(-c2cc(CN3CCN(c4ccc(C(=O)NCC56CC7CC(CC(C7)C5)C6)nn4)CC3)cc(OCC)c2)c1 [B1A081-01, N-(1-Adamantylmethyl)-6-[4-[[3-ethoxy-5-(3-ethoxyphenyl)phenyl]methyl]piperazin-1-yl]pyridazine-3-carboxamide] | −10.9% | −5.5% |
| CCOc1cccc(-c2cc(CN3CCN(c4ccc(C(=O)NCC56CC7CC(CC(C7)C5)C6)nn4)CC3)cc(OC(C)C)c2)c1 [B1A083-01, N-(1-Adamantylmethyl)-6-[4-[[3-(3-ethoxyphenyl)-5-propan-2-yloxyphenyl]methyl]piperazin-1-yl]pyridazine-3-carboxamide] | −0.3% | 0.5% |
| CCOc1cncc(-c2cc(CN3CCN(c4ccc(C(=O)NCC56CC7CC(CC(C7)C5)C6)nn4)CC3)cc(OC(C)C)c2)c1 [B1A084-01, N-(1-Adamantylmethyl)-6-[4-[[3-(5-ethoxypyridin-3-yl)-5-propan-2-yloxyphenyl]methyl]piperazin-1-yl]pyridazine-3-carboxamide] | 2.1% | −2.7% |
| CCOc1cccc(-c2cc(OC)c(CN3CCN(c4ccc(C(=O)NCC56CC7CC(CC(C7)C5)C6)nn4)CC3)c(OC)c2)c1 [B1A085-01, N-(1-Adamantylmethyl)-6-[4-[[4-(3-ethoxyphenyl)-2,6-dimethoxyphenyl]methyl]piperazin-1-yl]pyridazine-3-carboxamide] | 10.6% | 10.8% |
| CCOc1cncc(-c2cc(OC)c(CN3CCN(c4ccc(C(=O)NCC56CC7CC(CC(C7)C5)C6)nn4)CC3)c(OC)c2)c1 [B1A086-01, N-(1-Adamantylmethyl)-6-[4-[[4-(5-ethoxypyridin-3-yl)-2,6-dimethoxyphenyl]methyl]piperazin-1-yl]pyridazine-3-carboxamide] | 0.0% | −14.8% |
| CCOc1cncc(-c2cc(CN3CCN(c4ccc(C(=O)NCC56CC7CC(CC(C7)C5)C6)nn4)CC3)cc(C(F)(F)F)c2)c1 [B1A088-01, N-(1-Adamantylmethyl)-6-[4-[[3-(5-ethoxypyridin-3-yl)-5-(trifluoromethyl)phenyl]methyl]piperazin-1-yl]pyridazine-3-carboxamide] | 18.7% | −7.1% |
| CCOc1cccc(-c2cc(CN3CCN(c4ccc(C(=O)NCC56CC7CC(CC(C7)C5)C6)nn4)CC3)cc(OC(F)(F)F)c2)c1 [B1A089-01, N-(1-Adamantylmethyl)-6-[4-[[3-(3-ethoxyphenyl)-5-(trifluoromethoxy)phenyl]methyl]piperazin-1-yl]pyridazine-3-carboxamide] | 0.0% |  |
| CCOc1cncc(-c2cc(CN3CCN(c4ccc(C(=O)NCC56CC7CC(CC(C7)C5)C6)nn4)CC3)cc(OC(F)(F)F)c2)c1 [B1A090-01, N-(1-Adamantylmethyl)-6-[4-[[3-(5-ethoxypyridin-3-yl)-5-(trifluoromethoxy)phenyl]methyl]piperazin-1-yl]pyridazine-3-carboxamide] | 3.3% | −1.0% |
| CCOc1cccc(-c2csc(CN3CCN(c4ccc(C(=O)NCC56CC7CC(CC(C7)C5)C6)nn4)CC3)c2)c1 [B1A093-01, N-(1-Adamantylmethyl)-6-[4-[[4-(3-ethoxyphenyl)thiophen-2-yl]methyl]piperazin-1-yl]pyridazine-3-carboxamide] | −5.3% | 0.0% |
| CCOc1cccc(-c2ccc(C(C)N3CCN(c4ccc(C(=O)NCC56CC7CC(CC(C7)C5)C6)cc4)CC3)cc2)c1 (stereo not drawn) [B1A097-01, N-(1-Adamantylmethyl)-4-[4-[1-[4-(3-ethoxyphenyl)phenyl]ethyl]piperazin-1-yl]benzamide] | 3.2% | 2.5% |
| CCOc1cccc(-c2ccc(C(C)N3CCN(c4ccc(C(=O)NCC56CC7CC(CC(C7)C5)C6)cc4)CC3)c(F)c2)c1 (stereo not drawn) [B1A099-01, N-(1-Adamantylmethyl)-4-[4-[1-[4-(3-ethoxyphenyl)-2-fluorophenyl]ethyl]piperazin-1-yl]benzamide] | 0.9% | −0.9% |
| CCOc1cncc(-c2ccc(C(C)N3CCN(c4ccc(C(=O)NCC56CC7CC(CC(C7)C5)C6)cc4)CC3)c(F)c2)c1 (stereo not drawn) [B1A100-01, N-(1-Adamantylmethyl)-4-[4-[1-[4-(5-ethoxypyridin-3-yl)-2-fluorophenyl]ethyl]piperazin-1-yl]benzamide] | 6.4% | 2.3% |
| CCOc1cccc(-c2csc(C(=O)N3CCN(c4ccc(C(=O)NCC(F)(F)F)nn4)CC3)c2)c1 [B1K001-01, 6-[4-[4-(3-Ethoxyphenyl)thiophene-2-carbonyl]piperazin-1-yl]-N-(2,2,2-trifluoroethyl)pyridazine-3-carboxamide] | 0.0% | 0.0% |
| CCOc1cncc(-c2csc(C(=O)N3CCN(c4ccc(C(=O)NCC(F)(F)F)nn4)CC3)c2)c1 [B1K002-01, 6-[4-[4-(5-Ethoxypyridin-3-yl)thiophene-2-carbonyl]piperazin-1-yl]-N-(2,2,2-trifluoroethyl)pyridazine-3-carboxamide] | 0.0% | 0.0% |
| CCOc1cccc(-c2ccc(C(=O)N3CCN(c4ccc(C(=O)NCC(F)(F)F)nn4)CC3)cc2C)c1 [B1K003-01, 6-[4-[4-(3-Ethoxyphenyl)-3-methylbenzoyl]piperazin-1-yl]-N-(2,2,2-trifluoroethyl)pyridazine-3-carboxamide] | 0.1% | −0.2% |
| CCOc1cncc(-c2ccc(C(=O)N3CCN(c4ccc(C(=O)NCC(F)(F)F)nn4)CC3)cc2C)c1 [B1K004-01, 6-[4-[4-(5-Ethoxypyridin-3-yl)-3-methylbenzoyl]piperazin-1-yl]-N-(2,2,2-trifluoroethyl)pyridazine-3-carboxamide] | 0.0% | 0.6% |
| CCOc1cccc(-c2ccc(C(=O)N3CCN(c4ccc(C(=O)NCC(F)(F)F)nn4)CC3)cc2F)c1 [B1K005-01, 6-[4-[4-(3-Ethoxyphenyl)-3-fluorobenzoyl]piperazin-1-yl]-N-(2,2,2-trifluoroethyl)pyridazine-3-carboxamide] | −0.1% | 0.6% |

Now from value to compound:

| ASMS ratio (%) n = 1 | ASMS ratio (%) n = 2 | SMILES |
| --- | --- | --- |
| 4.7% | 1.2% | CCOc1cncc(-c2ccc(CN3CCN(c4ccc(C(=O)NCC56CC7CC(CC(C7)C5)C6)nn4)CC3)cc2F)c1 [B1A078-01, N-(1-Adamantylmethyl)-6-[4-[[4-(5-ethoxypyridin-3-yl)-3-fluorophenyl]methyl]piperazin-1-yl]pyridazine-3-carboxamide] |
| 3.9% | −3.9% | CCOc1cccc(-c2ccc(CN3CCN(c4ccc(C(=O)NCC56CC7CC(CC(C7)C5)C6)nn4)CC3)c(OC)c2)c1 [B1A079-01, N-(1-Adamantylmethyl)-6-[4-[[4-(3-ethoxyphenyl)-2-methoxyphenyl]methyl]piperazin-1-yl]pyridazine-3-carboxamide] |
| 3.4% | 0.0% | CCOc1cncc(-c2ccc(CN3CCN(c4ccc(C(=O)NCC56CC7CC(CC(C7)C5)C6)nn4)CC3)c(OC)c2)c1 [B1A080-01, N-(1-Adamantylmethyl)-6-[4-[[4-(5-ethoxypyridin-3-yl)-2-methoxyphenyl]methyl]piperazin-1-yl]pyridazine-3-carboxamide] |
| 3.0% | 0.2% | CCOc1cncc(-c2cc(CN3CCN(c4ccc(C(=O)NCC56CC7CC(CC(C7)C5)C6)nn4)CC3)cc(OCC)c2)c1 [B1A082-01, N-(1-Adamantylmethyl)-6-[4-[[3-ethoxy-5-(5-ethoxypyridin-3-yl)phenyl]methyl]piperazin-1-yl]pyridazine-3-carboxamide] |
| 0.0% | 15.4% | CCOc1cccc(-c2ccc(CN3CCN(c4ccc(C(=O)NCC56CC7CC(CC(C7)C5)C6)nn4)CC3)c3ccccc23)c1 [B1A091-01, N-(1-Adamantylmethyl)-6-[4-[[4-(3-ethoxyphenyl)naphthalen-1-yl]methyl]piperazin-1-yl]pyridazine-3-carboxamide] |
| 2.6% | −2.4% | CCOc1cncc(-c2ccc(CN3CCN(c4ccc(C(=O)NCC56CC7CC(CC(C7)C5)C6)nn4)CC3)c3ccccc23)c1 [B1A092-01, N-(1-Adamantylmethyl)-6-[4-[[4-(5-ethoxypyridin-3-yl)naphthalen-1-yl]methyl]piperazin-1-yl]pyridazine-3-carboxamide] |
| 6.2% | −0.7% | CCOc1cncc(-c2csc(CN3CCN(c4ccc(C(=O)NCC56CC7CC(CC(C7)C5)C6)nn4)CC3)c2)c1 [B1A094-01, N-(1-Adamantylmethyl)-6-[4-[[4-(5-ethoxypyridin-3-yl)thiophen-2-yl]methyl]piperazin-1-yl]pyridazine-3-carboxamide] |
| 0.3% | −17.1% | CCOc1cccc(C#Cc2ccccc2CN2CCN(c3ccc(C(=O)NCC45CC6CC(CC(C6)C4)C5)nn3)CC2)c1 [B1A095-01, N-(1-Adamantylmethyl)-6-[4-[[2-[2-(3-ethoxyphenyl)ethynyl]phenyl]methyl]piperazin-1-yl]pyridazine-3-carboxamide] |
| 0.0% | 7.4% | CCOc1cncc(C#Cc2ccccc2CN2CCN(c3ccc(C(=O)NCC45CC6CC(CC(C6)C4)C5)nn3)CC2)c1 [B1A096-01, N-(1-Adamantylmethyl)-6-[4-[[2-[2-(5-ethoxypyridin-3-yl)ethynyl]phenyl]methyl]piperazin-1-yl]pyridazine-3-carboxamide] |
